According to patent US10196365B2, “Quinazoline derivative, preparation method therefor, and pharmaceutical composition and application thereof” (ARROMAX PHARMATECH CO., LTD., priority 2014, dated 2019):
Marks after values point to notes of the source that are not given here.

How the values were obtained:
[1] = tested on: HCC 827 (human non-small cell lung cancer cell line); experiment: Growth inhibition test in tumor cells (CCK8), HCC827; format: cell-based; settings: HCC 827 cells, 72 h
Description: (§1) i) Logarithmic growth phase cells were collected and counted, the cells were suspended again with complete medium, the cell concentration was adjusted to an appropriate concentration (determined according to the results of cell density optimization test), inoculated to 96 plates, each of which with 100 mL cells suspension.

[2] = tested on: MDA-MB-453 (human breast cancer cell lines); experiment: Growth inhibition test in tumor cells (CCK8), MDA-MB-453; format: cell-based; settings: MDA-MB-453 cells, 72 h
Description: Growth Inhibition Tests of a Series of Compounds in Different Tumor Cells
i. Cell lines: A431 (human epithelial carcinoma cell lines), A549 (human lung cancer cell lines), NCI H1975 (human non-small cell lung cancer cell lines (HCC), HCC 827 (human non-small cell lung cancer cell line), MDA-MB-453 (human breast cancer cell lines)
MDA-MB-453 cell line: 90% L15+10% FBS; trypsin (a 0.25% (W/V) solution was prepared with […], 0.53 mM EDTA was added);
i) Logarithmic growth phase cells were collected and counted, the cells were suspended again with complete medium,
ii) The cell concentration was adjusted to an appropriate concentration, inoculated to 96 holes, each of which with 100 μL cells suspension.
iii) The cells were incubated in a 37° C., 100% relative humidity and 5% CO2 incubator, for 24 h.
i) Logarithmic growth phase cells were collected and counted, the cells were suspended again with complete medium, the cell concentration was adjusted to an appropriate concentration (determined according to the results of cell density optimization test), inoculated to 96 plates, each of which with […] cells suspension. The cells were incubated in a 37° C., 100% relative humidity and 5% CO2 incubator for 24 h.
ii) The test compounds were diluted to the corresponding concentration stated by culture medium, and the cells were inoculated as 25 μL/hole. The final concentration of the compound was from 10 μM to 0 μM, with a gradient of 4 times, and 10 concentration points totally.
iii) The cells were incubated in a 37° C., 100% relative humidity, 5% CO2 incubator for 72 h.
iv) Absorbing the culture medium, the complete medium containing 10% CCK-8 was added and incubated in the incubator of 37° C. for 2-4 h.
v) After a slight shake, the absorbance at 450 nm was measured by SpectraMax M5 Microplate Reader, taking the absorbance at 650 nm as a reference, the inhibition rate was calculated.
The IC50 curve fitting was performed by using the software Graphpad Prism 5 and the calculation formula log (inhibitor) vs. response to calculate the IC50 value.

[3] = tested on: A549 (human lung cancer cell lines); experiment: Growth inhibition test in tumor cells (CCK8), A549; format: cell-based; settings: 72 h
Description: as §1

[4] = tested on: NCI H1975 (human non-small cell lung cancer cell lines); experiment: Growth inhibition test in tumor cells (CCK8), NCI-H1975; format: cell-based; settings: 72 h
Description: as §1

[5] = tested on: A431 (human epithelial carcinoma cell lines); experiment: Growth inhibition test in tumor cells (CCK8), A431; format: cell-based; settings: A-431, 72 h
Description: as §1

Her-2 enzyme = Her-2 enzyme (Homo sapiens (Human), UniProt P04626); experiment: HTRF kinEASE TK in vitro kinase assay, Her-2; format: biochemical; settings: 30 min enzyme reaction, read-out: IC50 against Her-2
Description: (§2) The kinase analysis in vitro was performed using the HTRF kinEASE TK kit of Invitrogen Co., the procedure steps were carried out according to instructions of kit, the method then was used to detect the inhibitory effects of test compounds on substrate peptide phosphorylation of the EGFR receptor tyrosine kinase and Her-2 activity enzyme in vitro. Specific steps are as follows:
(§3) b) 2 microliters of the previously prepared TK-biotin substrate solution of EGFR and Her-2 enzyme corresponding to the substrate concentration were added to all the reaction holes.
(§4) The holes were sealed with sealing film for microplate, mixed and incubated at room temperature for 10 min to allow the compounds and enzymes fully combine.
(§5) d) 2 microliters of ATP solutions with concentration corresponding to EGFR and Her-2 enzyme were added to all the reaction holes to start the kinase reaction, the enzyme reaction time of EGFR and HER2 are 30 min.
(§6) e) The EGFR and Her-25 detection solution were prepared 5 min before the end of the kinase reaction. Streptavidin-XL665 and TK europium cryptate (1:100) detection solution corresponding to the two enzymes were prepared respectively by using detection buffer in the kit.
(§7) f) 5 microliters of diluted Streptavidin-XL665 were added to all the reaction holes after the kinase reaction was over, diluted TK antibody europium cryptate detection solutions were then added immediately after fully mixed.

EGFR tyrosine kinase = EGFR tyrosine kinase (Homo sapiens (Human), UniProt P00533); experiment: HTRF kinEASE TK in vitro kinase assay, EGFR; format: biochemical; settings: 30 min enzyme reaction, read-out: IC50 against EGFR
Description: as §2, §3, §4, §5, §6, §7

[6] = tested on: NCI-H1975 nude mice transplanted tumor; experiment: In vivo pharmacodynamics evaluation, NCI-H1975 nude mice transplanted tumor; parameters: species or system BALB/c nude mice; settings: gavage
Description: BALB/c nude mice, female, 6 to 7 weeks of age, weight 20 g±2 g, purchased from Shanghai silaike experimental animal Co. Ltd., SPF environment.
The logarithmic growth phase NCI-H1975 cells cultured in vitro were digested with trypsin, washed with PBS for three times, the cell survival rate was detected by trypan blue exclusion to be >90%, the cell concentration was adjusted to 1×10^7/mL with PBS, which was implanted subcutaneously in back forelimb of the nude mice with 0.2 mL/pcs under aseptic condition. After tumor formation, the tumor were cultured for two passages in vivo, the tumor were stripped out to sterile culture plate when growing to the volume of 300 to 500 mm^3, a small amount of PBS was added, the tumor tissue with vigorous growth were cut into about 1.5 mm^3 tumor blocks, inoculated in right armpit of the nude mice. The diameter of tumor was measured with vernier caliper, when the tumor grew to 100 to 200 mm^3, then the animal were randomly grouping, […], gavage administration, once a day or every other day, continuously administrated for 14 days (d14) and observed for 7 days (d22), the negative control group was administrated with the same amount of solvent (saline solution of 1% DMSO), during the period of administration and recovery, the body weight and tumor size of the nude mice were measured weekly 2 to 3 times. The tumor volume and relative tumor volume were calculated according to the measured data, and the calculation formula of the tumor volume (TV) was TV=1/2×a×b^2, of which a and b represent the tumor length and diameter respectively. The relative tumor volume (RTV) was calculated according to the measured results, and the calculation formula was: RTV=Vt/V0, wherein V0 represents the tumor volume at the beginning of the experiment, Vt represents the volume of the tumor each measured.

EGFR tyrosine kinase, sequence (P00533 25-1210): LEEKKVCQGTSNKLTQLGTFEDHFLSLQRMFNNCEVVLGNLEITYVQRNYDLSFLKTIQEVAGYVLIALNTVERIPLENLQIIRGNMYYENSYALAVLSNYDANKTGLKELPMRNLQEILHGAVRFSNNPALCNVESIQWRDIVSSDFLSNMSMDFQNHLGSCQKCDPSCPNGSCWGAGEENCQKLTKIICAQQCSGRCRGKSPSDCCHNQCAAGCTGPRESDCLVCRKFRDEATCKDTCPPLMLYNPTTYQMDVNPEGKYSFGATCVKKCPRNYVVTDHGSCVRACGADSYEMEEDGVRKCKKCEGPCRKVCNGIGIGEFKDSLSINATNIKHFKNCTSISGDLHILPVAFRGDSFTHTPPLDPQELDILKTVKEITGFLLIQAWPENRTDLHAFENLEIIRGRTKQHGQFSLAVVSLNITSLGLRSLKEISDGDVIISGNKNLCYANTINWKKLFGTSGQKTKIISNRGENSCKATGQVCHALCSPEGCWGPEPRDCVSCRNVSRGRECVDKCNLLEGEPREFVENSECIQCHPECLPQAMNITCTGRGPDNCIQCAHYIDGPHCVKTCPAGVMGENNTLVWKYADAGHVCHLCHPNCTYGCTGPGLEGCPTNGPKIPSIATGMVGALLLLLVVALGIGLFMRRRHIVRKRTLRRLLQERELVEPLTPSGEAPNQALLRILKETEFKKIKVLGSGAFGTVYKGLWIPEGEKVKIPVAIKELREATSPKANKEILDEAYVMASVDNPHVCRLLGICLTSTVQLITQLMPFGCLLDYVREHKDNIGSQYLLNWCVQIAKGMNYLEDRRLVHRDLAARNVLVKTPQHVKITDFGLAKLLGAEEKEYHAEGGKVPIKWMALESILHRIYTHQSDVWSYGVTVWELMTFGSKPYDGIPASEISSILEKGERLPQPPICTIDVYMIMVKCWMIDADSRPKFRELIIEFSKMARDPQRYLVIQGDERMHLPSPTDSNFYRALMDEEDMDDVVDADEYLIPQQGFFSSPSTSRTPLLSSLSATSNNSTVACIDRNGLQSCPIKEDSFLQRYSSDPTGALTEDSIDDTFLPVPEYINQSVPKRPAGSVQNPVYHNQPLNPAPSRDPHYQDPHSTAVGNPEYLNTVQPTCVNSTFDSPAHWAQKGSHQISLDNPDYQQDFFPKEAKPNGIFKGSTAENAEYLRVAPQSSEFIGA
Her-2 enzyme, sequence (P04626 23-1255): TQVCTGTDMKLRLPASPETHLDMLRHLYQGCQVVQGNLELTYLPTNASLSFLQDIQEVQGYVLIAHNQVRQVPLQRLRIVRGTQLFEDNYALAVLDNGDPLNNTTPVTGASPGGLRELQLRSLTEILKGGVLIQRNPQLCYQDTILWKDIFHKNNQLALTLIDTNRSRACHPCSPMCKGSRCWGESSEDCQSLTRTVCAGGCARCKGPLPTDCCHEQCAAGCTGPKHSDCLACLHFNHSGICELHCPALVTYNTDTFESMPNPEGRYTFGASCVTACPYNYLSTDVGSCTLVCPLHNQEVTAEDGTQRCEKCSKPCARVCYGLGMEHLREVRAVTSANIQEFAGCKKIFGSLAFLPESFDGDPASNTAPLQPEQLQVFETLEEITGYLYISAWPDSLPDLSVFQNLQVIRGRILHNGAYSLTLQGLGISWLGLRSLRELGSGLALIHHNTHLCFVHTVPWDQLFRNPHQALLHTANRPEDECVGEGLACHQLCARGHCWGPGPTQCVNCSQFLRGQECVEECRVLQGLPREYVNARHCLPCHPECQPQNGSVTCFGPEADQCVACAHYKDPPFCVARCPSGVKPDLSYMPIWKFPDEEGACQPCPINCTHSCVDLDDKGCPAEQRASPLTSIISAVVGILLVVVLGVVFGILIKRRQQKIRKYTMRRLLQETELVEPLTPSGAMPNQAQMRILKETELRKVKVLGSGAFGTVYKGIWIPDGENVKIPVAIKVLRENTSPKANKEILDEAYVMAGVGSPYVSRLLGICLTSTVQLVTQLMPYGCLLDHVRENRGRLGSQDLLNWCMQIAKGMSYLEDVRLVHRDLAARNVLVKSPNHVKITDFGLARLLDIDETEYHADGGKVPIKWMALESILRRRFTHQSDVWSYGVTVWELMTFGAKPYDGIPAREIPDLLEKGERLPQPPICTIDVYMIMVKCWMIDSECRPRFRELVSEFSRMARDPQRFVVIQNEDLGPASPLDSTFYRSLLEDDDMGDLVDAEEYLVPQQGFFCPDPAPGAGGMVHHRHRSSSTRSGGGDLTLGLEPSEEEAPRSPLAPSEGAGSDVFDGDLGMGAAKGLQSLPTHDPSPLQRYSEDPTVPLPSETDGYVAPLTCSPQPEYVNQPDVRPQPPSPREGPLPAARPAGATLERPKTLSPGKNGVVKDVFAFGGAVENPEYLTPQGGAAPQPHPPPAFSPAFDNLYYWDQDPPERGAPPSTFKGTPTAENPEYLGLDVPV

C#Cc1cccc(Nc2ncnc3cc(OCCOCC)c(NC(=O)/C=C/CN(C)C)cc23)c1 [Embodiment 10, (E)-N-(7-(2-ethoxyethoxy)-4-(3-ethynylphenylamino)quinazolin-6-yl)-4-(dimethylamino)but-2-enamide]
IC50 [1]: 0.587 nM
IC50 [2]: 1.43 nM
IC50 [3]: 1440 nM
IC50 [4]: 45.5 nM
IC50 [5]: 6.01 nM
IC50 (Her-2 enzyme): 3.63 nM
IC50 (EGFR tyrosine kinase): 0.771 nM

CCOCCOc1cc2ncnc(Nc3ccc(OCc4ccccn4)c(Cl)c3)c2cc1NC(=O)/C=C/CN(C)C [Embodiment 12, (E)-N-(4-(3-chloro-4-(pyridin-2-ylmethoxy)phenylamino)-7-(2-ethoxyethoxy)quinazolin-6-yl)-4-(dimethylamino)but-2-enamide]
Inhibition rate (%) d22 ([6]; 5 mg/kg, qd): 66.1** %
RTV d22 ([6]; 5 mg/kg, qd): 2.47 ± 0.68
T/C (%) d22 ([6]; 5 mg/kg, qd): 33.21%
Inhibition rate (%) d22 ([6]; 20 mg/kg (middle dosage), qod): 78.7** %
RTV d22 ([6]; 20 mg/kg, qod): 1.59 ± 0.33
T/C (%) d22 ([6]; 20 mg/kg, qod): 21.41%
Inhibition rate (%) d22 ([6]; 80 mg/kg (high dosage), qod): 90.5*** %
RTV d22 ([6]; 80 mg/kg, qod): 0.70 ± 0.09
T/C (%) d22 ([6]; 80 mg/kg, qod): 9.34%
IC50 (Her-2 enzyme): 53.9 nM
IC50 (EGFR tyrosine kinase): 10.2 nM

CC(C)OCCOc1cc2ncnc(Nc3ccc(F)c(Cl)c3)c2cc1NC(=O)/C=C/CN(C)C [Embodiment 6, (E)-N-(4-(3-chloro-4-fluorophenylamino)-7-(2-isopropoxyethoxy)quinazolin-6-yl)-4-(dimethylamino)but-2-enamide]
IC50 [1]: 0.55 nM
IC50 [3]: 1840 nM
IC50 [5]: 5.87 nM
IC50 (Her-2 enzyme): 83.8 nM
IC50 (EGFR tyrosine kinase): 1.54 nM

CCOCCOc1cc2ncnc(Nc3ccc(F)c(Cl)c3)c2cc1NC(=O)/C=C/CN(C)C [Embodiment 4, (E)-N-(4-(3-chloro-4-fluorophenylamino)-7-(2-ethoxyethoxy)quinazolin-6-yl)-4-(dimethylamino)but-2-enamide]
IC50 [1]: 0.312 nM
IC50 [2]: 0.62 nM
IC50 [3]: 7520 nM
Inhibition rate (%) d22 ([6]; 5 mg/kg (low dosage), qod): 73.2** %
RTV d22 ([6]; 5 mg/kg, qod): 2.00 ± 0.29
T/C (%) d22 ([6]; 5 mg/kg, qod): 26.91%
Inhibition rate (%) d22 ([6]; 20 mg/kg (middle dosage), qod): 82.0** %
RTV d22 ([6]; 20 mg/kg, qod): 1.39 ± 0.40
T/C (%) d22 ([6]; 20 mg/kg, qod): 18.71%
Inhibition rate (%) d22 ([6]; 80 mg/kg (high dosage), qod): 95.1*** %
RTV d22 ([6]; 80 mg/kg, qod): 0.43 ± 0.05
T/C (%) d22 ([6]; 80 mg/kg, qod): 5.75%
IC50 [5]: 1.53 nM
IC50 (Her-2 enzyme): 42.1 nM
IC50 (EGFR tyrosine kinase): 0.699 nM

COC[C@@H](C)Oc1cc2ncnc(Nc3ccc(F)c(Cl)c3)c2cc1NC(=O)/C=C/CN(C)C [Embodiment 2, (R,E)-N-(4-(3-chloro-4-fluorophenylamino)-7-(2-methoxy-1-methylethoxy)quinazolin-6-yl)-4-(dimethylamino)but-2-enamide]
IC50 [3]: 7560 nM
IC50 [4]: 49.9 nM
IC50 [5]: 43 nM
IC50 (Her-2 enzyme): 148 nM

COCCCOc1cc2ncnc(Nc3ccc(F)c(Cl)c3)c2cc1NC(=O)/C=C/CN(C)C [Embodiment 1, (E)-N-(4-(3-chloro-4-fluorophenylamino)-7-(3-methoxypropoxy)quinazolin-6-yl)-4-(dimethylamino)but-2-enamide]
IC50 [1]: 0.293 nM
IC50 [3]: 6080 nM
IC50 (Her-2 enzyme): 39.3 nM
IC50 (EGFR tyrosine kinase): 0.765 nM

CCCOCCOc1cc2ncnc(Nc3ccc(F)c(Cl)c3)c2cc1NC(=O)/C=C/CN(C)C [Embodiment 5, (E)-N-(4-(3-chloro-4-fluorophenylamino)-7-(2-propoxyethoxy)quinazolin-6-yl)-4-(dimethylamino)but-2-enamide]
IC50 [1]: 0.555 nM
IC50 [3]: 3140 nM
IC50 [5]: 8.15 nM
IC50 (Her-2 enzyme): 132 nM
IC50 (EGFR tyrosine kinase): 2.85 nM
